Source: PubChem BioAssay (NCI)
“And” between values parts separate entries of the source, which are not always exact repeats. Equal entries are not always repeated.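 Five compound concentrations were applied to cells in 96-well plates for 48 hours; endpoints were derived by simple linear interpolation of the resulting dose-response curve. The concentration for 50% growth inhibition is given as GI50. TGI: total growth inhibition.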

What was measured:
Assay in all cases: inhibition of tumour cell growth, NCI panel, 48 h
OVCAR-5 ovarian = system: OVCAR-5 ovarian
UO-31 renal = system: UO-31 renal
HCT-116 colon = system: HCT-116 colon
U251 CNS = system: U251 CNS
LOX IMVI melanoma = system: LOX IMVI melanoma
MDA-MB-231 breast = system: MDA-MB-231 breast
K-562 leukemia = system: K-562 leukemia
NCI-H23 lung = system: NCI-H23 lung
SR leukemia = system: SR leukemia
MOLT-4 leukemia = system: MOLT-4 leukemia

SMILES	TGI (OVCAR-5 ovarian) [µM]	TGI (UO-31 renal)	TGI (HCT-116 colon)	TGI (U251 CNS) [µM]	TGI (LOX IMVI melanoma)	TGI (MDA-MB-231 breast)	TGI (K-562 leukemia) [µM]	TGI (NCI-H23 lung)	TGI (SR leukemia)	TGI (MOLT-4 leukemia)	GI50 (OVCAR-5 ovarian)	GI50 (UO-31 renal)	GI50 (HCT-116 colon)	GI50 (U251 CNS)	GI50 (LOX IMVI melanoma)	GI50 (MDA-MB-231 breast)	GI50 (K-562 leukemia)	GI50 (NCI-H23 lung)	GI50 (SR leukemia)	GI50 (MOLT-4 leukemia)
CC(C)OC(=O)NNc1c(Cl)cc(Cl)cc1Cl	> 100	> 100 µM	> 100 µM	> 100	> 100 µM	> 100 µM	> 100	> 100 µM	> 100 µM	> 100 µM										
O=C(Nc1ccc(Br)cc1)c1cc(Br)ccc1O	> 92.4	2.16 µM and 9.78 µM	1.56 µM and 3.56 µM	> 100	4.46 µM and 4.42 µM	3.22 µM and 7.06 µM		2.06 µM and 4.34 µM	3.23 µM	3.2 µM and 3.89 µM	1.75 µM and 4.79 µM	0.247 µM and 0.767 µM	0.354 µM and 1.45 µM	0.417 µM and 0.682 µM	0.549 µM and 1.09 µM	0.622 µM and 1.43 µM	0.437 µM and 0.419 µM	0.345 µM and 0.467 µM	0.291 µM and 0.554 µM	0.683 µM and 0.799 µM
CC12CC(Br)(Br)C(=O)C3C1CCCC32	32.1	15 µM	5.12 µM	25.9	7.67 µM	7.62 µM	11.7	16.3 µM	13.6 µM	14.9 µM										
Cc1ccc(S(=O)(=O)NC(=O)Nc2ncn[nH]2)cc1	> 100	> 100 µM	> 100 µM	> 100		> 100 µM	> 100	> 100 µM	> 100 µM	> 100 µM										
CCOC(=O)c1ccc(N[C@@H]2c3cc4c(cc3C(c3cc(OC)c(O)c(OC)c3)[C@H]3C(=O)OCC32)OCO4)cc1 (stereo partly drawn)	6.16	0.982 µM and 3.4 µM	10.5 µM	3.27	1.61 µM	4.76 µM	27.2	0.768 µM and 2.24 µM	0.32 µM and 0.742 µM	0.219 µM and 0.158 µM	0.646 µM	0.394 µM	0.835 µM	0.203 µM	0.217 µM and 0.118 µM		0.662 µM and 1.44 µM	0.191 µM	0.0303 µM	0.0271 µM
O=c1oc2cc(O)ccc2cc1-c1nc2ccccc2o1	> 100	80.2 µM	> 100 µM	93.5	> 100 µM	> 100 µM	> 100	> 100 µM	> 100 µM	> 100 µM										
O=C(Nc1cccc2[nH]c(C(F)(F)F)nc12)c1ccc(Br)cc1F	23.5	7.36 µM	11.4 µM		12.5 µM	6.19 µM	39.2	10.6 µM	16.1 µM	23.3 µM	5.19 µM	1.98 µM	3.16 µM		3.78 µM	2.17 µM	3.37 µM	3.12 µM	3.51 µM	3.83 µM
C(#Cc1ccccc1C#Cc1cnccn1)c1cnccn1	> 100	> 68.4 µM	> 100 µM	> 100	53.4 µM	> 71.9 µM	> 44.3	57.3 µM	> 100 µM		> 61.7 µM	> 40.3 µM	27.8 µM	48 µM	17.3 µM	21.4 µM	9.02 µM	21.9 µM	6.81 µM	
COc1cccc(/C=C2\COc3ccc(O)c(O)c3C2=O)c1OC	13.6	2.4 µM	4.89 µM	10.5	3.08 µM	13.4 µM	> 100	11.1 µM	> 100 µM	> 100 µM	3.51 µM	1.1 µM	1.9 µM	2 µM	1.53 µM	3.32 µM	1.47 µM	2.9 µM	1.51 µM	1.83 µM
O=C(NCCc1nccs1)c1cnc2c(S)cccc2c1	41.6	16 µM	10.2 µM	16.7	92.8 µM	56.4 µM	> 100	> 100 µM	> 100 µM	> 100 µM	10 µM	3.26 µM	1.13 µM	2.53 µM	2.35 µM	3.33 µM	0.98 µM	3.91 µM	0.677 µM	1.14 µM
COc1cccc(C2=C(c3cn(C)c4c(C)cccc34)C(=O)NC2=O)c1	> 25	> 25 µM	> 25 µM	> 25	> 25 µM	> 25 µM	> 25	> 25 µM	> 25 µM	> 25 µM	> 25 µM	> 20.2 µM	> 18 µM	14.9 µM	> 25 µM	24.5 µM	12.8 µM	> 25 µM	> 19.6 µM	16.3 µM
CCc1n(Cc2ccc3ccccc3c2)cc[n+]1Cc1ccc2ccccc2c1	2.75	8.86 µM	2.16 µM	2.2	1.96 µM	1.44 µM	2.27	2.02 µM	4.28 µM	2.99 µM	1.2 µM	2.22 µM	0.865 µM	0.578 µM	0.649 µM	0.392 µM	0.404 µM	0.396 µM	0.528 µM	0.829 µM
CCCCCCCCCCCCNCCCc1ccccc1	3.48	4.35 µM	3.17 µM	2.86	3.24 µM	3.12 µM	4.54	3.65 µM	3.56 µM	4.5 µM	1.68 µM	1.86 µM	1.78 µM	1.53 µM	1.77 µM	1.61 µM	1.89 µM	1.9 µM	1.2 µM	2.04 µM
CC(=O)OC1C(C)OC(Oc2c(-c3ccc(O)cc3)oc3cc(O)cc(O)c3c2=O)C(O)C1OC(C)=O (stereo not drawn)	> 100	> 100 µM	> 100 µM	> 100	50.2 µM	63.7 µM	> 100	> 80.7 µM	65 µM	> 75 µM	> 100 µM	39.3 µM	35.1 µM	32.1 µM	21 µM	21.1 µM	30.8 µM	26.4 µM	25 µM	26.7 µM
